Laboratory results from patent US20080175794A1, “Substituted Pyridazinyl- and Pyrimidinyl-Quinolin-4-Ylamine Analogues” (NEUROGEN CORPORATION, priority 2005, published 2008).

Biological target: T1, human capsaicin receptor (Homo sapiens, UniProt Q8NER1)
T1 construct: expressed in transfected cells
Experiment: Calcium mobilization assay, determination of antagonist activity (Example 6)
Assay type: cell-based
Settings: Table III; assay provided in Example 6; cells expressing human capsaicin receptor, capsaicin at EC50
Outline: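 Stable HEK293 clones expressing full-length human capsaicin receptor, loaded with Fluo-3 AM in KRH buffer pH 7.4 (1–2 h, 37 °C). Test compound (1–5 μM final) preincubated 0.5–6 h at room temperature in the dark, then capsaicin added at its EC50. FLIPR/Fluoroskan calcium signal; IC50 as concentration halving the capsaicin response.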

T1 sequence (Q8NER1 whole entry): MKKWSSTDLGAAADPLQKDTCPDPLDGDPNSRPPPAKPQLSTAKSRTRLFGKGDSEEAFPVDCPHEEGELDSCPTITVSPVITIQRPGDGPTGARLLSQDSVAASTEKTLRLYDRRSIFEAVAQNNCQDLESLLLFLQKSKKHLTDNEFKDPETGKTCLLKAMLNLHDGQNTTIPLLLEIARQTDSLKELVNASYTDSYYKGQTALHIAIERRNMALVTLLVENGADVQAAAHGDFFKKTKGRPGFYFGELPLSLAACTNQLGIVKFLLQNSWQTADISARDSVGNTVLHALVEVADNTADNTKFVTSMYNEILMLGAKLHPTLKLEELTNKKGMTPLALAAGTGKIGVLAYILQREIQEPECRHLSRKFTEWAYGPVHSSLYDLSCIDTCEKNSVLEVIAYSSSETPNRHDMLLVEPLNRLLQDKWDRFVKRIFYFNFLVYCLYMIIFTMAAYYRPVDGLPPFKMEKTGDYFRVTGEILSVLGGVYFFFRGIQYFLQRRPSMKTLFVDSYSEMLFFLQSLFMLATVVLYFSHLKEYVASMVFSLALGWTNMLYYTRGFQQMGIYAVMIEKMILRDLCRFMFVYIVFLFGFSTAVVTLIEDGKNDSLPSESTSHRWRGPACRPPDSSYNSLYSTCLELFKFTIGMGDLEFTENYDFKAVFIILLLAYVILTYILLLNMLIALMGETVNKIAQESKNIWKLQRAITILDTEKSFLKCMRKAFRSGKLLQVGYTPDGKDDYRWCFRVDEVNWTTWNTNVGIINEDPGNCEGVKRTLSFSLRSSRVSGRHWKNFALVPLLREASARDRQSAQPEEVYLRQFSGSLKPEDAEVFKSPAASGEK

IC50 [nM]	SMILES
< 1000	CC1(C)CCN1c1cc(C(F)(F)F)c(-c2cnc3c(Nc4ccc(C(F)(F)F)cn4)ccnc3n2)nn1 [Compound 131, 3-[6-(2,2-dimethylazetidin-1-yl)-4-(trifluoromethyl)pyridazin-3-yl]-N-[5-(trifluoromethyl)pyridin-2-yl]pyrido[2,3-b]pyrazin-8-amine]
< 1000	CN(C)C1CCCN(c2cc(C(F)(F)F)c(-c3cnc4c(Nc5ccc(C(F)(F)F)cn5)ccnc4n3)nn2)C1 (centres unmarked) [Compound 132, 3-{6-[3-(dimethylamino)piperidin-1-yl]-4-(trifluoromethyl)pyridazin-3-yl}-N-[5-(trifluoromethyl)pyridin-2-yl]pyrido[2,3-b]pyrazin-8-amine]
< 1000	CCCN(CCO)c1cc(C(F)(F)F)c(-c2cnc3c(Nc4ccc(C(F)(F)F)cn4)ccnc3n2)nn1 [Compound 134, 2-{propyl[5-(trifluoromethyl)-6-(8-{[5-(trifluoromethyl)pyridin-2-yl]amino}pyrido[2,3-b]pyrazin-3-yl)pyridazin-3-yl]amino}ethanol]
< 1000	CN(CCO)c1cc(C(F)(F)F)c(-c2cnc3c(Nc4ccc(C(F)(F)F)cn4)ccnc3n2)nn1 [Compound 135, 2-{methyl[5-(trifluoromethyl)-6-(8-{[5-(trifluoromethyl)pyridin-2-yl]amino}pyrido[2,3-b]pyrazin-3-yl)pyridazin-3-yl]amino}ethanol]
< 1000	CN(CCCO)c1cc(C(F)(F)F)c(-c2cnc3c(Nc4ccc(C(F)(F)F)cn4)ccnc3n2)nn1 [Compound 137, 3-{methyl[5-(trifluoromethyl)-6-(8-{[5-(trifluoromethyl)pyridin-2-yl]amino}pyrido[2,3-b]pyrazin-3-yl)pyridazin-3-yl]amino}propan-1-ol]
< 1000	CN(C)CCCNc1cc(C(F)(F)F)c(-c2cnc3c(Nc4ccc(C(F)(F)F)cn4)ccnc3n2)nn1 [Compound 139, N,N-dimethyl-N′-[5-(trifluoromethyl)-6-(8-{[5-(trifluoromethyl)pyridin-2-yl]amino}pyrido[2,3-b]pyrazin-3-yl)pyridazin-3-yl]propane-1,3-diamine]
< 1000	CN1CCN(c2cc(C(F)(F)F)c(-c3cnc4c(Nc5ccc(C(F)(F)F)cn5)ccnc4n3)nn2)CC1 [Compound 145, 3-[6-(4-methylpiperazin-1-yl)-4-(trifluoromethyl)pyridazin-3-yl]-N-[5-(trifluoromethyl)pyridin-2-yl]pyrido[2,3-b]pyrazin-8-amine]
< 1000	CN(C)CCN(C)c1cc(C(F)(F)F)c(-c2cnc3c(Nc4ccc(C(F)(F)F)cn4)ccnc3n2)nn1 [Compound 150, N,N,N′-trimethyl-N′-[5-(trifluoromethyl)-6-(8-{[5-(trifluoromethyl)pyridin-2-yl]amino}pyrido[2,3-b]pyrazin-3-yl)pyridazin-3-yl]ethane-1,2-diamine]
< 1000	C=CCNc1cc(C(F)(F)F)c(-c2cnc3c(Nc4ccc(C(F)(F)F)cn4)ccnc3n2)nn1 [Compound 152, 3-[6-(allylamino)-4-(trifluoromethyl)pyridazin-3-yl]-N-[5-(trifluoromethyl)pyridin-2-yl]pyrido[2,3-b]pyrazin-8-amine]
< 1000	CCCCCNc1cc(C(F)(F)F)c(-c2cnc3c(Nc4ccc(C(F)(F)F)cn4)ccnc3n2)nn1 [Compound 153, 3-[6-(pentylamino)-4-(trifluoromethyl)pyridazin-3-yl]-N-[5-(trifluoromethyl)pyridin-2-yl]pyrido[2,3-b]pyrazin-8-amine]
< 1000	CCC(C)CNc1cc(C(F)(F)F)c(-c2cnc3c(Nc4ccc(C(F)(F)F)cn4)ccnc3n2)nn1 (centres unmarked) [Compound 154, 3-{6-[(2-methylbutyl)amino]-4-(trifluoromethyl)pyridazin-3-yl}-N-[5-(trifluoromethyl)pyridin-2-yl]pyrido[2,3-b]pyrazin-8-amine]
< 1000	FC(F)(F)CNc1cc(C(F)(F)F)c(-c2cnc3c(Nc4ccc(C(F)(F)F)cn4)ccnc3n2)nn1 [Compound 155, 3-{6-[(2,2,2-trifluoroethyl)amino]-4-(trifluoromethyl)pyridazin-3-yl}-N-[5-(trifluoromethyl)pyridin-2-yl]pyrido[2,3-b]pyrazin-8-amine]
< 1000	CC(C)Nc1cc(C(F)(F)F)c(-c2cnc3c(Nc4ccc(C(F)(F)F)cn4)ccnc3n2)nn1 [Compound 157, 3-[6-(isopropylamino)-4-(trifluoromethyl)pyridazin-3-yl]-N-[5-(trifluoromethyl)pyridin-2-yl]pyrido[2,3-b]pyrazin-8-amine]
< 1000	CCCC(C)Nc1cc(C(F)(F)F)c(-c2cnc3c(Nc4ccc(C(F)(F)F)cn4)ccnc3n2)nn1 (centres unmarked) [Compound 158, 3-{6-[(1-methylbutyl)amino]-4-(trifluoromethyl)pyridazin-3-yl}-N-[5-(trifluoromethyl)pyridin-2-yl]pyrido[2,3-b]pyrazin-8-amine]
< 1000	CC(C)(C)Nc1cc(C(F)(F)F)c(-c2cnc3c(Nc4ccc(C(F)(F)F)cn4)ccnc3n2)nn1 [Compound 161, 3-[6-(tert-butylamino)-4-(trifluoromethyl)pyridazin-3-yl]-N-[5-(trifluoromethyl)pyridin-2-yl]pyrido[2,3-b]pyrazin-8-amine]
< 1000	COCCNc1cc(C(F)(F)F)c(-c2cnc3c(Nc4ccc(C(F)(F)F)cn4)ccnc3n2)nn1 [Compound 163, 3-{6-[(2-methoxyethyl)amino]-4-(trifluoromethyl)pyridazin-3-yl}-N-[5-(trifluoromethyl)pyridin-2-yl]pyrido[2,3-b]pyrazin-8-amine]
< 1000	COCCCNc1cc(C(F)(F)F)c(-c2cnc3c(Nc4ccc(C(F)(F)F)cn4)ccnc3n2)nn1 [Compound 164, 3-{6-[(3-methoxypropyl)amino]-4-(trifluoromethyl)pyridazin-3-yl}-N-[5-(trifluoromethyl)pyridin-2-yl]pyrido[2,3-b]pyrazin-8-amine]
< 1000	COCC(C)Nc1cc(C(F)(F)F)c(-c2cnc3c(Nc4ccc(C(F)(F)F)cn4)ccnc3n2)nn1 (centres unmarked) [Compound 165, 3-{6-[(2-methoxy-1-methylethyl)amino]-4-(trifluoromethyl)pyridazin-3-yl}-N-[5-(trifluoromethyl)pyridin-2-yl]pyrido[2,3-b]pyrazin-8-amine]
< 1000	CCC(COC)Nc1cc(C(F)(F)F)c(-c2cnc3c(Nc4ccc(C(F)(F)F)cn4)ccnc3n2)nn1 (centres unmarked) [Compound 166, 3-[6-{[1-(methoxymethyl)propyl]amino}-4-(trifluoromethyl)pyridazin-3-yl]-N-[5-(trifluoromethyl)pyridin-2-yl]pyrido[2,3-b]pyrazin-8-amine]
< 1000	CN(C)C(=O)CNc1cc(C(F)(F)F)c(-c2cnc3c(Nc4ccc(C(F)(F)F)cn4)ccnc3n2)nn1 [Compound 167, N,N-dimethyl-N2-[5-(trifluoromethyl)-6-(8-{[5-(trifluoromethyl)pyridin-2-yl]amino}pyrido[2,3-b]pyrazin-3-yl)pyridazin-3-yl]glycinamide]
< 1000	OCCNc1cc(C(F)(F)F)c(-c2cnc3c(Nc4ccc(C(F)(F)F)cn4)ccnc3n2)nn1 [Compound 168, 2-{[5-(trifluoromethyl)-6-(8-{[5-(trifluoromethyl)pyridin-2-yl]amino}pyrido[2,3-b]pyrazin-3-yl)pyridazin-3-yl]amino}ethanol]
< 1000	OCCCNc1cc(C(F)(F)F)c(-c2cnc3c(Nc4ccc(C(F)(F)F)cn4)ccnc3n2)nn1 [Compound 169, 3-{[5-(trifluoromethyl)-6-(8-{[5-(trifluoromethyl)pyridin-2-yl]amino}pyrido[2,3-b]pyrazin-3-yl)pyridazin-3-yl]amino}propan-1-ol]
< 1000	CC(C)(CO)Nc1cc(C(F)(F)F)c(-c2cnc3c(Nc4ccc(C(F)(F)F)cn4)ccnc3n2)nn1 [Compound 171, 2-methyl-2-{[5-(trifluoromethyl)-6-(8-{[5-(trifluoromethyl)pyridin-2-yl]amino}pyrido[2,3-b]pyrazin-3-yl)pyridazin-3-yl]amino}propan-1-ol]
< 1000	OCCCCNc1cc(C(F)(F)F)c(-c2cnc3c(Nc4ccc(C(F)(F)F)cn4)ccnc3n2)nn1 [Compound 172, 4-{[5-(trifluoromethyl)-6-(8-{[5-(trifluoromethyl)pyridin-2-yl]amino}pyrido[2,3-b]pyrazin-3-yl)pyridazin-3-yl]amino}butan-1-ol]
< 1000	CCC(O)CNc1cc(C(F)(F)F)c(-c2cnc3c(Nc4ccc(C(F)(F)F)cn4)ccnc3n2)nn1 (centres unmarked) [Compound 173, 1-{[5-(trifluoromethyl)-6-(8{[5-(trifluoromethyl)pyridin-2-yl]amino}pyrido[2,3-b]pyrazin-3-yl)pyridazin-3-yl]amino}butan-2-ol]
< 1000	CC(O)CCNc1cc(C(F)(F)F)c(-c2cnc3c(Nc4ccc(C(F)(F)F)cn4)ccnc3n2)nn1 (centres unmarked) [Compound 174, 4-{[5-(trifluoromethyl)-6-(8-{[5-(trifluoromethyl)pyridin-2-yl]amino}pyrido[2,3-b]pyrazin-3-yl)pyridazin-3-yl]amino}butan-2-ol]
< 1000	FC(F)(F)c1ccc(Nc2ccnc3nc(-c4nnc(N5CCCCC5)cc4C(F)(F)F)cnc23)nc1 [Compound 176, 3-[6-piperidin-1-yl-4-(trifluoromethyl)pyridazin-3-yl]-N-[5-(trifluoromethyl)pyridin-2-yl]pyrido[2,3-b]pyrazin-8-amine]
< 1000	CC1CCN(c2cc(C(F)(F)F)c(-c3cnc4c(Nc5ccc(C(F)(F)F)cn5)ccnc4n3)nn2)CC1 [Compound 177, 3-[6-(4-methylpiperidin-1-yl)-4-(trifluoromethyl)pyridazin-3-yl]-N-[5-(trifluoromethyl)pyridin-2-yl]pyrido[2,3-b]pyrazin-8-amine]
< 1000	FC(F)(F)c1ccc(Nc2ccnc3nc(-c4nnc(N5CCCCCC5)cc4C(F)(F)F)cnc23)nc1 [Compound 178, 3-[6-azepan-1-yl-4-(trifluoromethyl)pyridazin-3-yl]-N-[5-(trifluoromethyl)pyridin-2-yl]pyrido[2,3-b]pyrazin-8-amine]
